Consider 11 compounds from PubChem BioAssay (NCI).

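Dose response: 5 concentrations. Exposure: 48 h. Format: 96-well plates. Endpoint: linear interpolation; highest concentration if not reached. GI50 marks 50% less growth. The concentration for full growth arrest is given as TGI.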

Usually GI50 stands for the concentration that inhibits growth by half. Usually TGI stands for the concentration at which net growth stops. High values mean lower sensitivity of the cells, low ones greater sensitivity of the cells.

Common to all, as to assay: DTP human tumour cell line panel, 48 h
The test system of assay [1] is SF-295 CNS.
In assay [2] the test system is HL-60(TB) leukemia.
Assay [3] has as its system K-562 leukemia.
In assay [4] the test system is A498 renal.
In assay [5] the test system is OVCAR-8 ovarian.
The test system of assay [6] is NCI-H460 lung.
The test system of assay [7] is OVCAR-3 ovarian.
The subject of assay [8] is LOX IMVI melanoma.
Assay [9] deals with MCF7 breast.
In assay [10] the test system is NCI-H522 lung.

Take `OCc1cc2ccccc2c2c3c(ccc12)OCO3`: the GI50 in assay [1] was 33.8 µM; in [2], 23.7 µM; in assay [3], 40 µM; in assay [4] it was 13.1 µM; in [5], 29.2 µM; in [6] it was 28.5 µM. The GI50 in assay [7] was 36.4 µM; in assay [8], 35.7 µM; in assay [9], 26.5 µM. Moreover, the TGI in [1] was determined as 154 µM; in assay [2] it was 66.2 µM; in assay [4], 39.5 µM; in assay [5], 199 µM; in [6], 752 µM; in [7], 168 µM. The TGI in assay [8] was determined as 118 µM; in assay [9], 125 µM.

Regarding `OCCN(CCO)c1ncnc2c1ncn2Cc1ccc(CCl)cc1`, the GI50 in [1] was 17 µM; in assay [3], 17.7 µM; in [4] it was 14.2 µM; in assay [5], 15.4 µM; in [6] it was 14.2 µM; in assay [7], 19.4 µM. Moreover, the GI50 is 16.4 µM in assay [8], 6.3 µM in [9] and 18.5 µM in assay [10]. In addition, the TGI is 33.6 µM in assay [1]; greater than 100 µM in [3]; 28.1 µM in assay [4]; 31.7 µM in [5]; 30.8 µM in assay [6]; 34.9 µM in assay [7]. Further, the concentration for total growth inhibition (TGI) in assay [8] is 30.9 µM; in assay [9], 32.5 µM; in assay [10], 46.6 µM.

As for `CCN(CC)N=Nc1c(C(N)=O)n[nH]c1C`, the TGI in [1], in assay [4], in assay [5], in [6], in [7] and in assay [8] was greater than 100 µM throughout. The total growth inhibition concentration (TGI) in [9] and in [10] was greater than 100 µM throughout.

On to `CCC(=O)[C@H](C)[C@@H](OC(=O)[C@H](C)CC)[C@H](C)[C@H]1OC(CC)=C(C)C(=O)[C@@H]1C`, for which the GI50 in assay [1] is 21.8 µM; in [2] it was 15.3 µM; in assay [3] it was 39.3 µM; in assay [4], 25.2 µM; in assay [5] it was 42.4 µM; in assay [6] it was 15.7 µM. For the same compound, the GI50 in [7] is 17.4 µM; in assay [8], 16.9 µM; in assay [9] it was 26.3 µM. In addition, the TGI is 43.7 µM in assay [1]; 40.3 µM in assay [2]; greater than 100 µM in assay [3]; 73 µM in assay [4]; greater than 100 µM in assay [5]; 36.2 µM in assay [6]. For the same compound, the TGI came out at 36.8 µM in [7], 30.5 µM in [8] and 89 µM in [9].

As for `Clc1ccccc1C(SCc1ccccc1)SCc1ccccc1`, the TGI in assay [1], in assay [2], in assay [3], in assay [5], in assay [6] and in [7] was greater than 100 µM in each case. Also, the total growth inhibition concentration (TGI) in assay [9] and in assay [10] was greater than 100 µM each time.

For the compound `CN1CCCCC1CCN1c2ccccc2Sc2ccc(Cl)cc21` (stereo not drawn), the GI50 was 3.32 µM in assay [1]; 2.66 µM in assay [2]; 2.6 µM in [3]; 2.7 µM in [4]; 3.83 µM in assay [5]; 2.77 µM in [6]. Also, the GI50 in assay [7] was 4.04 µM; in assay [9] it was 2.68 µM; in [10] it was 2.31 µM. Besides, the TGI in assay [1] stood at 13.5 µM; in [2], 6.05 µM; in assay [3], 7.57 µM; in [4], 10.8 µM; in assay [5], 12.5 µM; in [6], 8.44 µM. The results for the TGI in assay [7], in assay [9] and in assay [10] were 14.6 µM, 9 µM and 7.37 µM, respectively.

As for `CO/C(=N\N=C\c1ccc(C(F)(F)F)cc1)c1ccncc1`, the concentration for total growth inhibition (TGI) in [1], in assay [2], in [3], in assay [5], in assay [6] and in [7] was greater than 10 µM each time. Also, the TGI in [8], in assay [9] and in [10] was greater than 10 µM throughout.

Turning to `COC(=O)CC[N+]1=CCC(c2ccccc2)(c2ccccc2)O1`, the TGI in assay [1], in assay [3], in assay [4], in assay [5], in assay [6] and in [7] was greater than 100 µM each time. Moreover, the concentration for total growth inhibition (TGI) in assay [9] and in [10] was greater than 100 µM each time.

As to `CCOC1Oc2ccccc2C(=O)/C1=C/Nc1ccc(C(C)=O)cc1` (stereo not drawn), the GI50 in assay [1] is 23.9 µM; in assay [3] it was 16.1 µM; in assay [5] it was 16.3 µM; in assay [6] it was 32.8 µM; in assay [7], 17.2 µM; in assay [8], 18.9 µM. The GI50 in [9] was 26.7 µM; in assay [10], 27.1 µM. For the same compound, the TGI in assay [1] was 62.3 µM; in assay [3], 40.5 µM; in assay [5] it was 45 µM; in [6] it was greater than 100 µM; in assay [7], 43.8 µM; in [8], 58.5 µM. The TGI is greater than 100 µM in assay [9] and 87.3 µM in assay [10].

Consider `CN(C)C(=S)N=C(Nc1ccccc1)Nc1ccccc1`, for which the TGI in [1], in assay [2], in assay [3], in assay [4], in assay [5] and in [6] was greater than 100 µM throughout. Besides, the concentration for total growth inhibition (TGI) in assay [7], in assay [8] and in assay [10] was greater than 100 µM in each case.

In the case of `COc1cc2cc(OC)c3cc4c(cc3c2c(OC)c1OC)OCO4`, the TGI in assay [1] is greater than 76 µM; in assay [2], 45.7 µM; in assay [3], 48 µM; in assay [4] it was 97.5 µM; in [5], greater than 100 µM; in assay [6] it was 52 µM. Besides, the results for the TGI in assay [7], in [8] and in assay [10] were greater than 100 µM, 31 µM and 56.6 µM, respectively.
